This is an account of results in publication PMC10999085, “Synthesis, anticancer evaluation, molecular docking and ADME study of novel pyrido[4ʹ,3ʹ:3,4]pyrazolo[1,5-a]pyrimidines as potential tropomyosin receptor kinase A (TrKA) inhibitors” (BMC Chemistry, 2024).

Data set [1] has as its system Trk family. More on the design: method as in earlier work. Conditions: cited from earlier work.
The target in data set [2] is T1, Tropomyosin receptor kinase A (TrKA) (Homo sapiens, UniProt P04629).
T1 construct: purchased
Put plainly: Tropomyosin receptor kinase A (TrKA) inhibitory assay (Kinase-Glo MAX kit). In kind it is biochemical. Particulars: in vitro kinase assay, recombinant TrkA. From the text: The TrkA assay Kit is designed to measure TrkA activity for screening and profiling applications using Kinase-Glo® MAX as a detection reagent. The TrkA Assay Kit comes in a convenient 96-well format, with enough purified recombinant TrkA enzyme, TrkA substrate, ATP and kinase assay buffer for 100 enzyme reactions. The method was discussed in details in the ESI.
The TrkA assay Kit is designed to measure TrkA activity for screening and profiling applications using Kinase-Glo® MAX as a detection reagent. The TrkA Assay Kit comes in a convenient 96-well format, with enough purified recombinant TrkA enzyme, TrkA substrate, ATP and kinase assay buffer for 100 enzyme reactions.
The assay protocol: all samples and controls should be tested in duplicate. Dissolve 5x Kinase Assay Buffer 1, ATP, and PTK Substrate Poly (Glu:Tyr 4:1) (10 mg/ml). 2). The master mixture (25 μl per well) was prepared by N wells x (6 μl 5x Kinase Assay Buffer 1 + 1 μl ATP (500 μM) + 1 μl PTK Substrate Poly (Glu:Tyr 4:1) (10mg/ml) + 17 μl water). Add 5 μl of Inhibitor solution of each well labeled as “Test Inhibitor”. For the “Positive Control" and “Blank”, add 5 μl of the same solution without inhibitor (Inhibitor buffer). Prepare 3 ml of 1x Kinase assay buffer 1 by mixing 600 μl of 5x Kinase assay buffer 1 with 2400 μl water 3 ml of 1x Kinase assay buffer is sufficient for 100 reactions. To the wells designated as "Blank", add 20 μl of 1x Kinase assay buffer 1and thaw TrkA enzyme on ice. Upon first thaw, briefly spin tube containing enzyme to recover full content of the tube. Calculate the amount of TrkA required for the assay and dilute enzyme to 5 ng/μl with 1x Kinase assay buffer. Store remaining undiluted enzyme in aliquots at -80°C. Then initiate reaction by adding 20 μl of diluted TrkA enzyme to the wells designated “Positive Control” and "Test Inhibitor Control". Incubate at 30°C for 45minutes and thaw Kinase-Glo Max reagent. After the 45 minute reaction, add 50 μl of Kinase-Glo Max reagent to each well. Cover plate with aluminum foil and incubate the plate at room temperature for 15 minutes. Immediately read sample in a luminometer or microtiter-plate capable of reading chemiluminescence. “Blank” value is subtracted from all readings.
For orientation: Kinase-Glo measures the ATP left after a reaction by luminescence.

For data set [3], the system named is HepG2 cell line. Put plainly: MTT assay, HepG2 cell line. Conditions: for Cytotoxicity at 5 µg/l: HepG2, 5 µg/l; for Cytotoxicity at 5 µg/l / Cytotoxicity at 10 µg/l / Cytotoxicity at 20 µg/l: MTT, 24 hr treatment, in % (unit assumed); for Cytotoxicity at 10 µg/l: HepG2, 10 µg/l; for Cytotoxicity at 20 µg/l: HepG2, 20 µg/l. In kind it is cell-based, human. The method, then:
(§1) Determination of the inhibitory effects of compounds on cell growth was performed through the MTT assay. This colorimetric assay is based on the conversion of the yellow tetrazolium bromide (MTT) to a purple formazan derivative by mitochondrial succinate dehydrogenase in viable cells. The protocol was discussed in details in Additional file 1.
(§2) Compounds 1, 4a,b, 7a–c, 7k, l, 9a–c, 14a, 15b, 16a–c were selected to be investigated against three human cancer cell lines MCF7, HepG2 and HCT116 cell lines using MTT assay using doxorubicin as the standard drug. Each point is the mean ± SD (standard deviation) of three independent experiments performed in triplicate, using the prism software program (integrated Graphpad software, version 3).
(§3) Cell lines were used to measure the cell growth effects of the compounds using the MTT assay. This colorimetric assay is depend on the conversion of the yellow tetrazolium bromide (MTT) to a purple formazan derivative by mitochondrial succinate dehydrogenase in living cells. Cell lines were cultured in RPMI-1640 medium supplemented with 10% fetal bovine serum. The antibiotics added were 100 units/ml penicillin and 100 µg/ml streptomycin at 37 °C in a 5% CO2 incubator. Cell lines were seeded in a 96-well plates at a density of 1.0x10^4 cells/well and cultured at 37 °C for 48 h under 5% CO2. After incubation, the cells were treated with different concentrations of compounds and incubated for 24 hr. After 24 hr of drug treatment, 20 µl of MTT solution at 5 mg/ml was added to each well and incubated for 4 hr. 100 µl of dimethyl sulfoxide (DMSO) was added into each well to dissolve the purple formazan formed. The colorimetric assay was measured and recorded at absorbance of 570 nm using a plate reader (EXL 800, USA). Relative cell viability (%) was calculated as (A570 of treated sample/A570 of untreated sample) x 100 [36, 37].

For data set [4], the system named is HCT-116 cell line. Put plainly: MTT assay, HCT-116 cell line. In kind it is cell-based, human. Particulars: MTT, 24 hr treatment, in % (unit assumed); for Cytotoxicity at 5 µg/l: HCT116, 5 µg/l; for Cytotoxicity at 10 µg/l: HCT116, 10 µg/l; for Cytotoxicity at 20 µg/l: HCT116, 20 µg/l. The method, then: as §1, §2, §3
The subject of data set [5] is MCF7 cell line. Put plainly: MTT assay, MCF7 cell line. It is filed as cell-based, human. Particulars: 24 hr treatment, in % (unit assumed); for Cytotoxicity at 5 µg/l: MCF7, 5 µg/l; for Cytotoxicity at 10 µg/l: MCF7, 10 µg/l; for Cytotoxicity at 20 µg/l: MCF7, 20 µg/l. The method, then: as §1, §2, §3
Data set [6] relates to HepG2 cells. Put plainly: In-vitro cell cycle analysis (PI flow cytometry). In kind it is cell-based, human. The method, then: HepG-2 cells are pre-cultured in 25 cm^2 cell culture flask. RPMI-1640 medium was used. Tested compounds 7b, 9c, 15b, 16a and 16c were used in the cell treatment at their IC50 by dissolving them in the required medium separately. The procedure was discussed in details in the ESI.
For cell cycle analysis, stained DNA from HepG2 cancer cells was treated with compounds 7b, 15b, 16a and 16c that induce cancer cell death by inhibiting TrKA. From the results in Table 5, it can be seen that the proportion of cells at phase in the pre-G1 of compounds 7b, 15b, 16a and 16c increased the proportion of cells at phase in the G2/M by about 4, 4, 2.5 and 3 folds, respectively.
HepG-2 cells were pre-cultured in 25 cm^2 cell culture flasks; RPMI-1640 medium was used. Tested compounds 7b, 15b, 16a and 16c were dissolved separately in the required medium and used in the cell treatment at their IC50. After overnight treatment the cells were collected and fixed gently with 70% (v/v) ethanol in PBS, incubated overnight at 4 °C, and resuspended in PBS containing 40 µg/ml propidium iodide (PI), 0.1 mg/ml RNase and 0.1% (v/v) Triton X-100 in the dark room at after 30 min at 37 °C, the cell cycle analysis was performed using a flow cytometer, equipped with an argon ion laser at a wavelength of 488 nm (Becton-Dickinson, San Josa, CA, USA) and the percentage of cells at G1, S and G2/M was also calculated.
A general note: Flow cytometry measures light scatter and fluorescence of single cells or particles in a stream.

The subject of data set [7] is HepG2 cells. Put plainly: Annexin V-FITC apoptosis assay. In kind it is cell-based, human. The method, then:
HepG-2 cells were harvested and incubated with compounds 7b, 15b, 16a and 16c separately for 48 h. Then, the cells were collected and washed with PBS two successive times followed by centrifugation. After that, the cells were treated with Annexin V-FITC and propidium iodide (PI) using the apoptosis detection kit (BD Biosciences and Annexin V-FITC and PI binding were analyzed by a flow cytometer.
Early and late apoptosis was determined after treatment of HepG2 cells with compounds 7b, 15b, 16a and 16c compared with untreated control cells. The late apoptosis rate increased by about 13, 20, 4 and 3 times, respectively, showing a higher efficiency than the early apoptosis ratio 5, 2, 8 and 6 times, respectively.
As mentioned above, HepG-2 cells were collected and incubated separately with compounds 7b, 15b, 16a and 16c for 48 hr. Cells were then collected and washed twice consecutively with PBS and centrifuged. After that, the cells were treated with Annexin V-FITC and propidium iodide (PI) using an apoptosis detection kit (BD Biosciences, San Jose, CA) according to the manufacturer's instructions. The biding of Annexin V-FITC and PI was analyzed by ﬂow cytometer.

[8] abbreviates: HepG2, compared with untreated control cells.

Values after ≈ are worked out from the molar mass of the structure shown. “Also recorded” adds a separate entry of the source.

T1 sequence (P04629 33-796): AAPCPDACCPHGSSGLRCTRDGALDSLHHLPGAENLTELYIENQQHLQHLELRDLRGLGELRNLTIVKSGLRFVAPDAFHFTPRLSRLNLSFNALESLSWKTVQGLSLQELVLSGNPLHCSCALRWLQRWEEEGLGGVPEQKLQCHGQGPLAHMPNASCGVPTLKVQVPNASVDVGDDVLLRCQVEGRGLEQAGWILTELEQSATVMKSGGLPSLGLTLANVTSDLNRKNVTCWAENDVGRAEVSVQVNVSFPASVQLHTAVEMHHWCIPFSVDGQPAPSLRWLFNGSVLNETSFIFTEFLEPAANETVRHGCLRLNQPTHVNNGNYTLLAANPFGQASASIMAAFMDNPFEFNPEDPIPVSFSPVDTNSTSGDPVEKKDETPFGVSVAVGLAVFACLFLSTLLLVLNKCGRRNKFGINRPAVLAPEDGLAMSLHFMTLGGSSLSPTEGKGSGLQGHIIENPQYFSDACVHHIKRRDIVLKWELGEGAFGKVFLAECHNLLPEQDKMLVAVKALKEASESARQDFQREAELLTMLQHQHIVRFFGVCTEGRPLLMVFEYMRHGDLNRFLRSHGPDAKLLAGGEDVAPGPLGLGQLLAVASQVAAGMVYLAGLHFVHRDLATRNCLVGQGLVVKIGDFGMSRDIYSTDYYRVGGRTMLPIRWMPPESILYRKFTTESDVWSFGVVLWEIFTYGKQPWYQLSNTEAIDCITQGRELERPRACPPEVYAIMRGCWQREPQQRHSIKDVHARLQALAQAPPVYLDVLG

On to `O=C(Nc1cnn2ccc(N3CCC[C@@H]3c3cc(F)ccc3F)nc12)N1CC[C@H](O)C1` [Larotrectinib], for which the IC50 in data set [1] was 0.002 to 0.02 µM.
As to `COc1ccc(C=C2C(=O)NC(=O)c3c2nn2c(O)cc(C)nc32)cc1` [Compound 15b, 4-Hydroxy-7-(4-methoxybenzylidene)-2-methylpyrido[4ʹ,3ʹ:3,4]pyrazolo[1,5-a]pyrimidine-8,10(7H,9H)-dione], the IC50 in data set [2] is 0.288 µM. In data set [3], the “Cytotoxicity at 5 µg/l” value was found to be 49.48, the “Cytotoxicity at 10 µg/l” value stood at 75.98 and the “Cytotoxicity at 20 µg/l” value came out at 78.66. The IC50 in data set [3] (Homo sapiens, HepG2, MTT, read-out: IC50 (drug concentration that inhibited 50% of cell proliferation)) worked out at 4.64 ng/mL (≈ 0.0132 µM). In addition, in data set [4], the “Cytotoxicity at 5 µg/l” value came to 26.10, the “Cytotoxicity at 10 µg/l” value is recorded as 66.87 and the “Cytotoxicity at 20 µg/l” value was 84.20. Moreover, in data set [5], the “Cytotoxicity at 5 µg/l” value came out at 28.52, the “Cytotoxicity at 10 µg/l” value is on record as 62.92 and the “Cytotoxicity at 20 µg/l” value turned out to be 83.62. Besides, the “Cell cycle comment (phase of arrest)” value in data set [6] (HepG2) was “arrested in the cell cycle at G2/M phase; also recorded: arrest in cell cycle at the G2/M phase; also recorded: cell growth arrest@G2/M”. In data set [6] (HepG2, compound at its IC50), the “DNA content %G0-G1” value is 33.57%, the “DNA content %G2/M” value was 36.72%, the “DNA content %Pre-G1” value was 32.51% and the “DNA content %S” value is given as 29.71%. The “increase of the proportion of cells in the G2/M phase” value in data set [6] (HepG2, versus control) was “about 4 folds”. Further, in data set [7] (HepG2, 48 h, Annexin V-FITC/PI), the “Apoptosis Early” value came to 2.93%, the “Apoptosis Late” value was 20.12% and the Necrosis is given as 9.46%. The apoptosis-inducing effect in data set [7] (HepG2, as stated in the abstract) is 36.72%. Further, in data set [7] (setting [8]), the “increase of early apoptosis ratio” value worked out at 2 times and the “increase of late apoptosis rate” value is given as around 20 times.
Compound `Cc1ccc(NN=C2C(=O)NC(=O)c3c2nn2c(C)cc(C)nc32)cc1` [Compound 9b, 2,4-Dimethyl-7-(2-(p-tolyl)hydrazono)pyrido[4ʹ,3ʹ:3,4]pyrazolo[1,5-a]pyrimidine-8,10(7H,9H)-dione] returned a melting point of 285 °C. In data set [3], the “Cytotoxicity at 5 µg/l” value was 8.46, the “Cytotoxicity at 10 µg/l” value is 33.81 and the “Cytotoxicity at 20 µg/l” value was found to be 73.11. Further, in data set [4], the “Cytotoxicity at 5 µg/l” value is listed as 22.09, the “Cytotoxicity at 10 µg/l” value is reported as 40.50 and the “Cytotoxicity at 20 µg/l” value is on record as 59.80. In data set [5], the “Cytotoxicity at 5 µg/l” value is given as 33.82, the “Cytotoxicity at 10 µg/l” value stood at 51.19 and the “Cytotoxicity at 20 µg/l” value is listed as 72.13.
The compound `COc1ccc(N/N=C2\C(=O)NC(=O)c3c2nn2c(C)cc(C)nc32)cc1` [Compound 9c, 7-(2-(4-Methoxyphenyl)hydrazono)-2,4-dimethylpyrido[4ʹ,3ʹ:3,4]pyrazolo[1,5-a]pyri-midine-8,10(7H,9H)-dione] had a melting point of 305 °C. Moreover, in data set [2], the IC50 was 0.434 µM. Besides, in data set [3], the “Cytotoxicity at 5 µg/l” value came to 42.88, the “Cytotoxicity at 10 µg/l” value worked out at 50.63 and the “Cytotoxicity at 20 µg/l” value came to 86.55. In data set [4], the “Cytotoxicity at 5 µg/l” value is recorded as 59.74, the “Cytotoxicity at 10 µg/l” value is recorded as 67.13 and the “Cytotoxicity at 20 µg/l” value turned out to be 89.80. Besides, in data set [5], the “Cytotoxicity at 5 µg/l” value was found to be 38.17, the “Cytotoxicity at 10 µg/l” value stood at 53.72 and the “Cytotoxicity at 20 µg/l” value came out at 87.32.

As a reminder, the melting point is the temperature of the solid-liquid transition.
